Four compounds from ChEMBL document CHEMBL4616651, “6-Deoxy- and 11-Hydroxytolypodiols: Meroterpenoids from the Cyanobacterium HT-58-2” (J Nat Prod, 2020) can be followed below.

SMILES strings stand for the structures. The source made the active and inactive calls. No cut-off for these calls is given here.

The subject of assay [1] is Microglia. Briefly: Antiinflammatory activity against LPS-induced rat Primary neonatal microglia assessed as inhibition in TXB2 generation preincubated for 20 mins followed by PMA-stimulation and measured after 70 mins by immunoassay. The class given is functional, cell-based.
Assay [2] has as its system Microglia. Briefly: Antiinflammatory activity against LPS-induced rat Primary neonatal microglia assessed as inhibition in superoxide anion generation preincubated for 20 mins followed by PMA-stimulation and measured after 70 mins by spectrophotometric method. The format is functional, cell-based.
Assay [3] relates to Mus musculus. As to the kind of experiment: Antiinflammatory activity in mouse assessed as reduction in PMA induced ear edema topically administered per ear and measured after 200 mins. The class given is functional.

What is called IC50 is the midpoint of a concentration-inhibition curve.

With `COC(=O)c1ccc2c(c1)C[C@H]1[C@]3(C)C[C@@H](O)[C@H]4C(C)(C)CC[C@@H](O)[C@]4(C)[C@H]3[C@@H](O)C[C@]1(C)O2`, the IC50 in assay [1] is 0.1 µM. In assay [2], the inhibition entry was “inactive”.
With `CC(C(=O)O)c1ccc(-c2ccccc2)c(F)c1` (stereo not given) [FLURBIPROFEN], the IC50 in assay [1] turned out to be 0.1 µM.
With `C[C@]12CCC(=O)C=C1CC[C@@H]1[C@@H]2[C@@H](O)C[C@@]2(C)[C@H]1CC[C@]2(O)C(=O)CO` [HYDROCORTISONE], the ED50 in assay [3] stood at 20 µg.
Same read-out and setting: as for `COC(=O)c1ccc2c(c1)C[C@H]1[C@]3(C)C[C@@H](O)[C@H]4C(C)(C)CC[C@@H](O)[C@]4(C)[C@H]3CC[C@]1(C)O2` [TOLYPODIOL], the figure is 30 µg.
